From article PMC10485003, “Antibiotic hyper-resistance in a class I aminoacyl-tRNA synthetase with altered active site signature motif” (Nature Communications, 2023)
Several values for one entry are separate records, joined by “and”; a condition that tells them apart may be missing. Identical values can stand only once.

How the values were obtained:
mut-HVGH DrIleRS2 = target: T1, mut-HVGH DrIleRS2 (Deinococcus radiodurans, UniProt Q9RUP8, A59H/H61G/L60V); experiment: biochemical
T1 construct: hexa-histidine tag (pET28b(+)) (N); made in house; host or cells: E. coli BL21(DE3)
T1 sequence (Q9RUP8 1-1078 A59H/L60V/H61G): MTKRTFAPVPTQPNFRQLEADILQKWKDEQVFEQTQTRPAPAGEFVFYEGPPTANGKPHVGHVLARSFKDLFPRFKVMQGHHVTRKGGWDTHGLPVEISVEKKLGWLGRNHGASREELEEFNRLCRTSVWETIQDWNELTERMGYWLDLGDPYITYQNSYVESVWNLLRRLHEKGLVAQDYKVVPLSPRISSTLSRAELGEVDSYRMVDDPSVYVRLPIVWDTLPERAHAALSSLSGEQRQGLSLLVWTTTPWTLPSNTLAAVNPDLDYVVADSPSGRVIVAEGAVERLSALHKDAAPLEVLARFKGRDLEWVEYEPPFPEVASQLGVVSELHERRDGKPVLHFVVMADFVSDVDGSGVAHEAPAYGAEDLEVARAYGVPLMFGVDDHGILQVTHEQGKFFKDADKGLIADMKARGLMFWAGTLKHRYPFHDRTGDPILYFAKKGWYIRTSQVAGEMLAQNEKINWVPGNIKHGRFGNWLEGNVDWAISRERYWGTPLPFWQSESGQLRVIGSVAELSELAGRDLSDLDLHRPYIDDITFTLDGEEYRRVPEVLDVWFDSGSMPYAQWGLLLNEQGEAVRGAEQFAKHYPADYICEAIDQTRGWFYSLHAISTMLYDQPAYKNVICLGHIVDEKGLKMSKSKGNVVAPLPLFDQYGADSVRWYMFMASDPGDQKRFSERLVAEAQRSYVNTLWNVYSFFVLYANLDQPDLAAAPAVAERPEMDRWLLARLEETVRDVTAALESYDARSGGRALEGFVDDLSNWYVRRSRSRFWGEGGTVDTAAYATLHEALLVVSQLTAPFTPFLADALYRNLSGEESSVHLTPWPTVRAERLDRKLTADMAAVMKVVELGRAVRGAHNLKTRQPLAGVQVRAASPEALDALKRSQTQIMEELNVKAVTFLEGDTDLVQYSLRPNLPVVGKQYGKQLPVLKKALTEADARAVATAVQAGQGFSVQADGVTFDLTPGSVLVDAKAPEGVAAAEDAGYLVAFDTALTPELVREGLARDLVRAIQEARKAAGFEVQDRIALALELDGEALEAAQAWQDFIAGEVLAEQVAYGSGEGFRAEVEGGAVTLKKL
Method: (§1) L-Ile and ATP concentrations ranged from 1/10 KM to 10 KM values. When measuring the KI towards one of the substrates, the other was held in saturation (concentrations at least 10 KM). The aliquots of the reaction mixture (1–2.5 μl) were quenched in 2 volumes of 500 mM NaOAc pH = 4.5, 0.1% SDS, and formed ^32P-ATP was separated from the remaining ^32P-PPi by thin-layer chromatography on Polygram CEL 300 PEI UV254 TLC plates (Macherey-Nagel, cat: 801063) using 750 mM KH2PO4 pH=3.5, 4 M urea buffer. Visualization and quantification of the signals was performed using a Typhoon Phosphoimager 5 (General Electric) and accompanying ImageQuant™ TL software (SV: 10.2). The kinetic constants were determined using a global fit option of the competitive inhibition model of GraphPad Prism 6 software (SV: 6.01). All experiments were performed in triplicates. The kcat was determined by dividing the maximal velocity, VM, with the used enzyme concentration. […]
(§2) variable substrate (ATP or Ile) was varied in the range of 0.1 KM to 10 KM. The other substrate (Ile or ATP) was kept in excess at 5 to 10 KM. Data were globally fitted to the competitive inhibition model using GraphPad prism 6.01 for Windows software. The values represent the average value ± SD of three independent experiments. Source data are provided as a Source Data file.
(§3) (1 picture or pasted object on this page, not shown here)

mut-GVHH TtIleRS2 = target: T2, mut-GVHH TtIleRS2 (Thermus thermophilus, UniProt P56690, G56H/H54G); experiment: biochemical
T2 construct: hexa-histidine tag (pET28b(+)) (N); made in house; host or cells: E. coli Rosetta2 (DE3)
T2 sequence (P56690 1-1043 H54G/G56H): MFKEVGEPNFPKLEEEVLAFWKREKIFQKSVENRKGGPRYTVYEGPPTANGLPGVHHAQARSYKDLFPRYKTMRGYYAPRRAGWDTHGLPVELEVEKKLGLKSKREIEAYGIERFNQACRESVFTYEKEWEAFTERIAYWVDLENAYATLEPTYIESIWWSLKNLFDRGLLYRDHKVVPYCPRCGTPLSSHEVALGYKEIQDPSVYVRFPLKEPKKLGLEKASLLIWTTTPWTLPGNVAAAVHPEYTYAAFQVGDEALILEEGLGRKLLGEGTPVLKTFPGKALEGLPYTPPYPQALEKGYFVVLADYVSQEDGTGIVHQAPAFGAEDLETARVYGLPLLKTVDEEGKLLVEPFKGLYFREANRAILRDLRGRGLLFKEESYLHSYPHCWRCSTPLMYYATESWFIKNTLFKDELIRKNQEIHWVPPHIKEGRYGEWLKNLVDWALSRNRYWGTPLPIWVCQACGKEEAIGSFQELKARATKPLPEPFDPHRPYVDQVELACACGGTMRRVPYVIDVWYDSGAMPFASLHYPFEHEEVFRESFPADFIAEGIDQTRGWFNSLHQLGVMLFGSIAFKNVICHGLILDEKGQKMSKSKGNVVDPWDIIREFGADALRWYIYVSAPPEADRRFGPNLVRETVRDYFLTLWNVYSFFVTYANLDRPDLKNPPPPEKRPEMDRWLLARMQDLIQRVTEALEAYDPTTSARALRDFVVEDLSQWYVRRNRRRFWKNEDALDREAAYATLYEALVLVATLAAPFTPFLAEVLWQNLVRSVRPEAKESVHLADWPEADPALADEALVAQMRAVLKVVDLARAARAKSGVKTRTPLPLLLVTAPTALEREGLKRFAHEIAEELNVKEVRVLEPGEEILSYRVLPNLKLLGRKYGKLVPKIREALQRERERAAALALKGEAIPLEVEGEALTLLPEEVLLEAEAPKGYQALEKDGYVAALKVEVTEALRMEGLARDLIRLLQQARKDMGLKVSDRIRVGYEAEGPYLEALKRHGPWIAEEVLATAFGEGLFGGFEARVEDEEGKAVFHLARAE
Method: as §1, §2, §3

[1] = KI (MUP)ATP, amino acid activation assay, ATP as variable substrate, average ± SD of three independent experiments
[2] = KI (MUP)Ile, amino acid activation step, ATP/PPi exchange assay, Ile varied, ATP saturating, average ± SD of three independent experiments
[3] = KI, single replicates, mupirocin inhibition towards Ile, GraphPad Prism output, Repl1-Repl3

SMILES: C/C(=C\C(=O)OCCCCCCCCC(=O)O)C[C@@H]1OC[C@H](C[C@@H]2O[C@H]2[C@@H](C)[C@H](C)O)[C@@H](O)[C@H]1O [mupirocin]
- Ki (mut-HVGH DrIleRS2; [1]): 9.3 ± 0.4 µM
- Ki (mut-HVGH DrIleRS2; [2]): 8.1 ± 0.3 µM
- Ki (mut-HVGH DrIleRS2; [3]): 7.8 µM and 8.4 µM (2×)
- Ki (mut-GVHH TtIleRS2; [1]): 34 ± 2 µM
- Ki (mut-GVHH TtIleRS2; [2]): 35 ± 2 µM
- Ki (mut-GVHH TtIleRS2; [3]): 34 µM and 35 µM and 36 µM
